Assay results: US20220340597A1, “HEXAHYDRO-1H-PYRAZINO[1,2-A]PYRAZINE COMPOUNDS FOR THE TREATMENT OF AUTOIMMUNE DISEASE” (Hoffmann-La Roche Inc., priority 2019, published 2022)

How the values were obtained:
[1] = molecular target: T1, human TLR7 (Homo sapiens, UniProt Q9NYK1); assay: HEK293-Blue-hTLR-7 cells assay; format: cell-based; conditions: HEK293-Blue-hTLR7 cells, R848 stimulation, 20 hrs, SEAP reporter; read-out: HEK/hTLR7 IC50
T1 construct: host or cells: HEK293 (HEK-Blue hTLR7)
T1 sequence (Q9NYK1 27-1049): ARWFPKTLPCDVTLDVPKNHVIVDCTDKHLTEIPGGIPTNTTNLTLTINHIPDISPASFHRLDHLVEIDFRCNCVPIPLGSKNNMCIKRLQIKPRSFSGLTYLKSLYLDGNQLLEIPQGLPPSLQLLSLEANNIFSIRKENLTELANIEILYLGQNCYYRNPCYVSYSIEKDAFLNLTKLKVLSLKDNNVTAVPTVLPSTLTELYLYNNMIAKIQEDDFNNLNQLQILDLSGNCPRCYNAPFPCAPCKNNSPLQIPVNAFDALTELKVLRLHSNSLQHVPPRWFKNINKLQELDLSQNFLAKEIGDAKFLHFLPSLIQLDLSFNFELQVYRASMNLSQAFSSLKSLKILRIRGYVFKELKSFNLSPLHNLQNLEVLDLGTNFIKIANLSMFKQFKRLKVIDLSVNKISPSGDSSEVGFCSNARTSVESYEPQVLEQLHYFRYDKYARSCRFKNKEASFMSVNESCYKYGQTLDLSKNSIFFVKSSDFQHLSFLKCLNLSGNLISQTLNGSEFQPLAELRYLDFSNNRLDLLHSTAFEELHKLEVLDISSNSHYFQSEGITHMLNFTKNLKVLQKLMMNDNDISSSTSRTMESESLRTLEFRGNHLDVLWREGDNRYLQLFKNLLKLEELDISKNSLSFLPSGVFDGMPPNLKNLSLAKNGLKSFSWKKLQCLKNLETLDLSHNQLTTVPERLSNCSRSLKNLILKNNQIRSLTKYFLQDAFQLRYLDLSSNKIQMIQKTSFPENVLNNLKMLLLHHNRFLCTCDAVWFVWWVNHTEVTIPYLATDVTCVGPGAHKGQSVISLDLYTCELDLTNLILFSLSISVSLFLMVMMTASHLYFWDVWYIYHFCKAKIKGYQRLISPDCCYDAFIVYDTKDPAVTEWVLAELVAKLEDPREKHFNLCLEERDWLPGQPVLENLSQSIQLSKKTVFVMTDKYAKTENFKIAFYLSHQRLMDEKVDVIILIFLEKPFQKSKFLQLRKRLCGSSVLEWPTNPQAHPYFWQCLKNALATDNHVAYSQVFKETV

[2] = molecular target: T2, hERG channel (Homo sapiens, UniProt Q12809); assay: hERG channel inhibition assay (patch-clamp, CHOhERG cells); format: cell-based; conditions: for IC50 / IC20: CHOhERG cells, whole-cell patch-clamp; for IC20: human, CHO cells stably expressing hERG (CHOhERG); for hERG IC20/TLR7 IC50 / hERG IC20/TLR8 IC50 / hERG IC20/TLR9 IC50: safety ratio
T2 construct: expressed in transfected cells; host or cells: CHO (Chinese hamster ovary), CHOhERG
Outline: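 Whole-cell voltage-clamp recordings of IKhERG in CHO cells stably expressing human hERG, stimulated at 0.1 Hz. Compound applied at rising concentrations, each held 3–10 min to reach steady state; current amplitude and kinetics compared with pre-drug control set as 100%.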

T2 sequence (Q12809 whole entry): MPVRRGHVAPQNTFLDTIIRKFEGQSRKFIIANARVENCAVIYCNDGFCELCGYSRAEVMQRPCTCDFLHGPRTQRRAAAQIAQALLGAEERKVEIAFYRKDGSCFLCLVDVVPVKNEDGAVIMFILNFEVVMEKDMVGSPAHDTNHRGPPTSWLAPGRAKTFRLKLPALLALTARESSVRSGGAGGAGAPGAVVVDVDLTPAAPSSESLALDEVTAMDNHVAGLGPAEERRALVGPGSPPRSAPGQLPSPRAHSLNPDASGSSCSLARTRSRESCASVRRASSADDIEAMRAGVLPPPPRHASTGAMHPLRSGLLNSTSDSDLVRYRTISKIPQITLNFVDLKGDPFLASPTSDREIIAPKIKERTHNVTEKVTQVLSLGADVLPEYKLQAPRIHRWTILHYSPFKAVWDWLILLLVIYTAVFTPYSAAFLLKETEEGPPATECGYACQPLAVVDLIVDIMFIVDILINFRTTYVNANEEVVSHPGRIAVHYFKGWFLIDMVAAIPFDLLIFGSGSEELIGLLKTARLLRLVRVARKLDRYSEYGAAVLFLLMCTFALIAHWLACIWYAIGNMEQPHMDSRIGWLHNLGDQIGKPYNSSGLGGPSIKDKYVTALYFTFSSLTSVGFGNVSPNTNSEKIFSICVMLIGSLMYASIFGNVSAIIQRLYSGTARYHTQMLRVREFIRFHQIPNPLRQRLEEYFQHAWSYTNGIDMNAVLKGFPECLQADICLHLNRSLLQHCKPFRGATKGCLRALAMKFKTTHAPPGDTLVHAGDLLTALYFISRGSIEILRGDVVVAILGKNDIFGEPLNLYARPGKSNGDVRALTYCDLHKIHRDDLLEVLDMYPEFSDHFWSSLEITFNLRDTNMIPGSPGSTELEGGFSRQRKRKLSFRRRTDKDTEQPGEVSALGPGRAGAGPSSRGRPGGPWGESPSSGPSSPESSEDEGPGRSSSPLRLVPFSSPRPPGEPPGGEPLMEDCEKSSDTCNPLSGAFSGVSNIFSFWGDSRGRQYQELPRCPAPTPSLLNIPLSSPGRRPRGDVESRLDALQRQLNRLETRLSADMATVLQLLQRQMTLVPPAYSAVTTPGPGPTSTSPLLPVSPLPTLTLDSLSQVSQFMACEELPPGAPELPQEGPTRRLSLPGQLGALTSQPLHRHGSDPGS

| SMILES | IC50 [1] [µM] | IC50 [2] [µM] | IC20 [2] [µM] | hERG IC20/TLR7 IC50 [2] | hERG IC20/TLR8 IC50 [2] | hERG IC20/TLR9 IC50 [2] |
| --- | --- | --- | --- | --- | --- | --- |
| C[C@@H]1CN(c2ccc(C#N)c3ncccc23)C[C@@H]2CN(Cc3ccc4c(c3)CNCC4)CCN21 (relative stereo) [Example 1] | 0.017 | > 20 | > 10 | >588 | >1000 | >172 |
| [2H]c1ccc2c(N3C[C@@H]4CN(Cc5ccc(N6C[C@H]7NCCO[C@@H]7C6)nc5C)CCN4[C@H](C)C3)ccc(C#N)c2n1 [Example 98, 5-[(4R,9aS)-8-[[6-[(4aR,7aR)-3,4,4a,5,7,7a-hexahydro-2H-pyrrolo[3,4-b][1,4]oxazin-6-yl]-2-methyl-3-pyridyl]methyl]-4-methyl-3,4,6,7,9,9a-hexahydro-1H-pyrazino[1,2-a]pyrazin-2-yl]-2-deuterio-quinoline-8-carbonitrile] | 0.024 | > 20 | > 10 | >416 | >1000 | >172 |
| [2H]c1ccc2c(N3C[C@@H]4CN(Cc5ccc(N[C@H]6CNC[C@H]6F)nc5C)CCN4[C@H](C)C3)ccc(C#N)c2n1 [Example 82, 5-[(4R,9aS)-8-[[6-[[(3S,4R)-4-fluoropyrrolidin-3-yl]amino]-2-methyl-3-pyridyl]methyl]-4-methyl-3,4,6,7,9,9a-hexahydro-JH-pyrazino[1,2-a]pyrazin-2-yl]-2-deuterio-quinoline-8-carbonitrile] | 0.012 | > 20 | > 10 | >833 | >3333 | >243 |
| [2H]c1ccc2c(N3C[C@@H]4CN(Cc5ccc(N6CC7(CN(C)C7)C6)nc5C)CCN4[C@H](C)C3)ccc(C#N)c2n1 [Example 80, 5-[(4R,9aS)-4-methyl-8-[[2-methyl-6-(6-methyl-2,6-diazaspiro[3.3]heptan-2-yl)-3-pyridyl]methyl]-3,4,6,7,9,9a-hexahydro-1H-pyrazino[1,2-a]pyrazin-2-yl]-2-deuterio-quinoline-8-carbonitrile] | 0.023 | > 20 | > 10 | >434 | >2000 | >312 |
| Cc1cc(N2CCNCC2)cnc1N1CCN2[C@@H](C1)CN(c1cc(=O)n(C)c3ncccc13)C[C@H]2C [Example 93, 4-[(4R,9aR)-4-methyl-8-(3-methyl-5-piperazin-1-yl-2-pyridyl)-3,4,6,7,9,9a-hexahydro-1H-pyrazino[1,2-a]pyrazin-2-yl]-1-methyl-1,8-naphthyridin-2-one] | 0.01 | > 20 | > 10 | >1000 | >163 | >53 |
| [2H]c1ccc2c(N3C[C@@H]4CN(Cc5ccc(N6C[C@@H]7C[C@H]6CN7)nc5C)CCN4[C@H](C)C3)ccc(C#N)c2n1 [Example 92, 5-[(4R,9aS)-8-[[6-[(1S,4S)-2,5-diazabicyclo[2.2.1]heptan-2-yl]-2-methyl-3-pyridyl]methyl]-4-methyl-3,4,6,7,9,9a-hexahydro-1H-pyrazino[1,2-a]pyrazin-2-yl]-2-deuterio-quinoline-8-carbonitrile] | 0.006 | > 20 | > 10 | >1666 | >1111 | >294 |
| [2H]c1ccc2c(N3C[C@@H]4CN(Cc5ccc(N6CC7CNCC(C6)O7)nc5C)CCN4[C@H](C)C3)ccc(C#N)c2n1 [Example 83, 5-[(4R,9aS)-4-methyl-8-[[2-methyl-6-(9-oxa-3,7-diazabicyclo[3.3.1]nonan-3-yl)-3-pyridyl]methyl]-3,4,6,7,9,9a-hexahydro-1H-pyrazino[1,2-a]pyrazin-2-yl]-2-deuterio-quinoline-8-carbonitrile] | 0.017 | > 20 | > 10 | >588 | >1428 | >196 |
